Experimental data reported in US6166004A, “Combinations of HIV protease inhibitors with reverse transcriptase inhibitors” (Novartis Finance Corporation, priority 1996, dated 2000).

Legend:
[1] = tested on: 46I/47V/50V (VX478) strain; test: Transient DNA transfection assay, resistant strain 46I/47V/50V (VX478); format: cell-based, HIV-1; details: 10 nM, not quantified
Source text: (§1) Inhibitor-resistant HIV-1 protease variants are cloned as follows:
(§2) By way of PCR-supported mutagenesis and cloning, HIV-1 protease mutants are generated that are based on the infectious clone pNL4-3 (freely available via the "NIH AIDS reference and reagent program", the original reference is A. Adachi et al. J. Virol (1986) 59, 284-91--but it can, of course, be any other HIV clone, or even clinical material, provided that comparability is ensured). […] The cloned fragments are, for example, only 500 base pairs in length, all of the remainder being unchanged. By using mutations in always the same clone, direct comparability is ensured, which would not be the case in a direct comparison of clinical samples or of different HIV clones.
(§3) That system is used as a transient DNA transfection system for tests:
(§4) 1) in order to identify possible cross-resistances of protease variants to several protease inhibitors; and
(§5) 2) in order to establish the potency and resistance profile of novel inhibitor candidates.
(§6) Instead of the strains mentioned, there may be used any human T4-positive cells, such as the HeLaT4 cells, deposited under that name by Richard Axel and Paul Maddon in "NIH AIDS reference and reagent program" and obtainable via that source.

[2] = tested on: HIV-1 (pNL4-3 clone) in HeLaT4 cells; test: Transient DNA transfection assay in HeLaT4 cells (HIV clone pNL4-3), potency; format: cell-based; details: transfection system
Source text: as §1, §2, §3, §4, §5, §6

[3] = tested on: HIV-1 protease resistant variant (451/76F strain)
Source text: as §1, §2, §3, §4, §5, §6

COC(=O)N[C@H](C(=O)N[C@@H](Cc1ccccc1)[C@@H](O)CN(Cc1ccc(-c2ccccn2)cc1)NC(=O)[C@@H](NC(=O)OC)C(C)(C)C)C(C)(C)C [Example 46, 1-[4-(Pyridin-2-yl)-phenyl]-4(S)-hydroxy-5(S)-2,5-bis[N-(N-methoxycarbonyl-(L)-tert-leucyl)amino]-6-phenyl-2-azahexane]
activity compared with saquinavir, ritonavir and indinavir [1]: more potent (not quantified) than that of saquinavir, ritonavir and indinavir | in vitro potency compared with saquinavir [2]: in practical terms better than that of saquinavir | activity against resistant variant compared with other protease inhibitors [3]: comparable with saquinavir and better than that of indinavir (Merck & Co., Inc., see below) or ritonavir
